Data reported in ChEMBL document CHEMBL3585342, “Exploring the isoform selectivity of TGX-221 related pyrido[1,2-a]pyrimidinone-based Class IA PI 3-kinase inhibitors: synthesis, biological evaluation and molecular modelling” (Bioorg Med Chem, 2015).

How the values were obtained:
[1] = target: Phosphatidylinositol 4,5-bisphosphate 3-kinase catalytic subunit beta isoform (Homo sapiens, UniProt P42338); type: cell-based, Sf9
Description: Inhibition of N-terminal His-tagged human p110beta expressed in Sf9 cells co-expressing p85alpha regulatory subunit using phosphatidylinositol substrate and [gamma-33P]-ATP by basic thin layer chromatography technique based lipid kinase assay

[2] = Inhibition of cell proliferation of human NZB5 cells containing wild-type p110alpha gene incubated for 5 days by [3H]thymidine incorporation assay; type: functional, cell-based
[3] = Inhibition of cell proliferation of human NZOV9 cells containing wild-type p53 protein and p110alpha Y1021C mutant incubated for 5 days by [3H]thymidine incorporation assay; type: functional, cell-based
[4] = target: Phosphatidylinositol 4,5-bisphosphate 3-kinase catalytic subunit alpha isoform (Homo sapiens, UniProt P42336); type: cell-based, Sf9
Description: Inhibition of N-terminal His-tagged human p110alpha expressed in Sf9 cells co-expressing p85alpha regulatory subunit using phosphatidylinositol substrate and [gamma-33P]-ATP by basic thin layer chromatography technique based lipid kinase assay

[5] = target: T1, Phosphatidylinositol 4,5-bisphosphate 3-kinase catalytic subunit delta isoform (Homo sapiens, UniProt O00329); type: cell-based, Sf9
T1 sequence (O00329 whole entry): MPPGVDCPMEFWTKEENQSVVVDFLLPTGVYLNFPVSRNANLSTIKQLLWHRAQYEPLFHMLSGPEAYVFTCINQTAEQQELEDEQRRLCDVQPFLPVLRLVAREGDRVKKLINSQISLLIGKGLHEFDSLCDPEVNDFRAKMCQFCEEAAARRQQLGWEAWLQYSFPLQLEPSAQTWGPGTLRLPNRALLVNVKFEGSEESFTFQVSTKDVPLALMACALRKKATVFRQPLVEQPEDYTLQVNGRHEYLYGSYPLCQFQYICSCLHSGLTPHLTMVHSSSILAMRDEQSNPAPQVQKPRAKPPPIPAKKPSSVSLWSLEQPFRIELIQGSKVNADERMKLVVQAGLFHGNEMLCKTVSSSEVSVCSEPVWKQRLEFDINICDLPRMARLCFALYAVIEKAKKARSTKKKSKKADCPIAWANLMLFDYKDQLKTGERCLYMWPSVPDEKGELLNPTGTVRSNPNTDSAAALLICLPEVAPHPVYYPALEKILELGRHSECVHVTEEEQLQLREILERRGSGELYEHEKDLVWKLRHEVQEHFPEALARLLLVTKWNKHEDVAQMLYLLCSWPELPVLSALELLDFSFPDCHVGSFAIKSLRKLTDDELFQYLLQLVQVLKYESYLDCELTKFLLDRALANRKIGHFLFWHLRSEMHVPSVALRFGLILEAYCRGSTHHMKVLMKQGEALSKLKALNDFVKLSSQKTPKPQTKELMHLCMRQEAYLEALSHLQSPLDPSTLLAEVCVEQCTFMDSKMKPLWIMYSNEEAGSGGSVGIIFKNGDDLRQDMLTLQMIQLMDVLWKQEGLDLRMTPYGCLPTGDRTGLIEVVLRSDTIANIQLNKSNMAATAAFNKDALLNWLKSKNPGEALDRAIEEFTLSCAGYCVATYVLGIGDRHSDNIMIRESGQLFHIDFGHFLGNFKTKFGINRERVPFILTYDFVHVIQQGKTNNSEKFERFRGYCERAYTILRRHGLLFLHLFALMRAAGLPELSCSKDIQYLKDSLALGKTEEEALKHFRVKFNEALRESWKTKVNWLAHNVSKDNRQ
Description: Inhibition of N-terminal His-tagged human p110delta expressed in Sf9 cells co-expressing p85alpha regulatory subunit using phosphatidylinositol substrate and [gamma-33P]-ATP by basic thin layer chromatography technique based lipid kinase assay

Sequence of Phosphatidylinositol 4,5-bisphosphate 3-kinase catalytic subunit alpha isoform (P42336 whole entry, canonical isoform): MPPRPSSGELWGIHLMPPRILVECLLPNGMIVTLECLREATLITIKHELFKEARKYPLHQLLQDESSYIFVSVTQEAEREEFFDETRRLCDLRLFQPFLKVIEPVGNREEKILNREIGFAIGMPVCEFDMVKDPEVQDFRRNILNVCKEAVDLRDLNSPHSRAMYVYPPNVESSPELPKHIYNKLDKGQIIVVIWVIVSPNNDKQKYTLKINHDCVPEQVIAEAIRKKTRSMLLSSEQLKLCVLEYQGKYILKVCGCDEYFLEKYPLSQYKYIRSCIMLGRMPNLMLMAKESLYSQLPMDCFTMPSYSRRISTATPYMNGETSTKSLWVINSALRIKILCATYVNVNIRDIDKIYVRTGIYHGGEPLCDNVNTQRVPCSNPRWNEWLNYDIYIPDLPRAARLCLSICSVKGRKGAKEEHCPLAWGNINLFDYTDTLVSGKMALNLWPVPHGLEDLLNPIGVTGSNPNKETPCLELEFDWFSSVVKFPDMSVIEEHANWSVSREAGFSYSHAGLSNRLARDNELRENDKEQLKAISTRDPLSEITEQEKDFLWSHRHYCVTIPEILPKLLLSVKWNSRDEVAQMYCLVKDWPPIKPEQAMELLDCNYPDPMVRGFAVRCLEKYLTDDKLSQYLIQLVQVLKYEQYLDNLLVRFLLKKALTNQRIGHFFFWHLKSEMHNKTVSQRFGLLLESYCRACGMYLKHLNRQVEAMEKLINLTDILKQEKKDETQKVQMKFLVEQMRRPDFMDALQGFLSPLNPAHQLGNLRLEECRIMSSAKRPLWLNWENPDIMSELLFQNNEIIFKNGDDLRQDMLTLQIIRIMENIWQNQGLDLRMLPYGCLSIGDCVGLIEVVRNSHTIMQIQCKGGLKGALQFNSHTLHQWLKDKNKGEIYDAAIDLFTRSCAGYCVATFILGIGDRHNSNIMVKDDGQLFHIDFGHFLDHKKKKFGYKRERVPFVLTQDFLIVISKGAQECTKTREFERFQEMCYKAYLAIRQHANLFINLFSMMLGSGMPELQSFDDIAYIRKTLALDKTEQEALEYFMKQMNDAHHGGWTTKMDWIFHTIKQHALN
Sequence of Phosphatidylinositol 4,5-bisphosphate 3-kinase catalytic subunit beta isoform (P42338 whole entry, canonical isoform): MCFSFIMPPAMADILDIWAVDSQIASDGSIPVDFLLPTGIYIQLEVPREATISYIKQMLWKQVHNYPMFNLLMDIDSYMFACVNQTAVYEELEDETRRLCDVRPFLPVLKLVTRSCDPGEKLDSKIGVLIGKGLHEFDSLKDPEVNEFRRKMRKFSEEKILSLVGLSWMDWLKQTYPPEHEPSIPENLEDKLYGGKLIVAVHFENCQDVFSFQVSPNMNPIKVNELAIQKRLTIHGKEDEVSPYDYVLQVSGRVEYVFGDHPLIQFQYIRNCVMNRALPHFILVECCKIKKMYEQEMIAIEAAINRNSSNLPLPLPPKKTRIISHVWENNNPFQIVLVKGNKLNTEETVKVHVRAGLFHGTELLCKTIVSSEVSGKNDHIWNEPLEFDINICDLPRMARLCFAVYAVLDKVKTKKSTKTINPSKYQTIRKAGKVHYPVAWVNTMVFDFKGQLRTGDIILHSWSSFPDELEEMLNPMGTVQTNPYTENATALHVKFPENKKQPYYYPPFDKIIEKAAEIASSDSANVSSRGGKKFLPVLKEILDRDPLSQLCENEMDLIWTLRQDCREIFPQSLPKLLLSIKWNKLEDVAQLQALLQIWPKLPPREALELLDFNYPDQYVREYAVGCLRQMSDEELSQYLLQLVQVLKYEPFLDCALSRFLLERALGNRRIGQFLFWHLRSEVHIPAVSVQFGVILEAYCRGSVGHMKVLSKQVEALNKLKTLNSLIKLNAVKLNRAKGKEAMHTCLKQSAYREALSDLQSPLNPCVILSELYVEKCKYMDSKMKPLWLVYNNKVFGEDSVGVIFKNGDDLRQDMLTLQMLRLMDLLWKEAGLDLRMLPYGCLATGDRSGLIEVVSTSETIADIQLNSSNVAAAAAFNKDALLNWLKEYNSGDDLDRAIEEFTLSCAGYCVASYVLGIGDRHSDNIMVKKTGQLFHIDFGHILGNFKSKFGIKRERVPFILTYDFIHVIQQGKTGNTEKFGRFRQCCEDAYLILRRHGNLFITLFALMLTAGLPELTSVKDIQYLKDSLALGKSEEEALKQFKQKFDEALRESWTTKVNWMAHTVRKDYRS

| IC50 [1] [nM] | IC50 [4] [nM] | IC50 [5] [nM] | SMILES | IC50 [2] [nM] | IC50 [3] [nM] |
| --- | --- | --- | --- | --- | --- |
| 20 | – | – | Cc1cc(NCc2ccccc2C)c2nc(N3CCOCC3)cc(=O)n2c1 | 1500 | 5000 |
| 4800 | > 10000 | > 10000 | O=c1cc(N2CCOCC2)nc2c(CS(=O)(=O)c3ccccc3)cccn12 | > 20000 | > 20000 |
| 30 | 1100 | 470 | O=c1cc(N2CCOCC2)nc2c(CNc3ccccc3)cccn12 | – | – |
| 30 | 790 | 270 | CN(Cc1cccn2c(=O)cc(N3CCOCC3)nc12)c1ccccc1 | 12000 | 10000 |
| 20 | 1800 | 470 | Cc1ccccc1NCc1cccn2c(=O)cc(N3CCOCC3)nc12 | – | – |
| 240 | 1100 | 810 | Cc1cccc(NCc2cccn3c(=O)cc(N4CCOCC4)nc23)c1 | 3000 | – |
| 4600 | 6800 | 710 | Cc1ccc(NCc2cccn3c(=O)cc(N4CCOCC4)nc23)cc1 | 5500 | 5800 |
| 310 | 3100 | 1100 | O=c1cc(N2CCOCC2)nc2c(CNc3ccc(Cl)cc3)cccn12 | > 20000 | 15000 |
| 2100 | 350 | 240 | COc1ccc(NCc2cccn3c(=O)cc(N4CCOCC4)nc23)cc1 | 340 | 9600 |
| 7400 | 6500 | 600 | Cc1ccc(S(=O)(=O)NCc2cccn3c(=O)cc(N4CCOCC4)nc23)cc1 | 18000 | > 20000 |
| 570 | 1500 | 570 | O=c1cc(N2CCOCC2)nc2c(CSc3ccccc3)cccn12 | 7800 | 6300 |
| 230 | 1500 | 470 | O=c1cc(N2CCOCC2)nc2c(COc3ccccc3)cccn12 | 17000 | 11000 |
| 1000 | 2500 | 550 | Cc1ccc(OCc2cccn3c(=O)cc(N4CCOCC4)nc23)cc1 | 13000 | 8200 |
| 1400 | 1600 | 460 | COc1ccc(OCc2cccn3c(=O)cc(N4CCOCC4)nc23)cc1 | 13000 | 14000 |
| 1000 | > 10000 | 1500 | N#Cc1ccc(OCc2cccn3c(=O)cc(N4CCOCC4)nc23)cc1 | > 20000 | 18000 |
| 450 | 1700 | 410 | Cc1cc(Nc2ccccc2)c2nc(N3CCOCC3)cc(=O)n2c1 | 1200 | 3000 |
| 670 | 4400 | 900 | Cc1cc(N(C)c2ccccc2)c2nc(N3CCOCC3)cc(=O)n2c1 | 2000 | 5000 |
| 1100 | 1500 | 310 | Cc1cc(Nc2ccccc2C)c2nc(N3CCOCC3)cc(=O)n2c1 | – | 2200 |
| 1200 | > 1000 | 470 | Cc1cccc(Nc2cc(C)cn3c(=O)cc(N4CCOCC4)nc23)c1 | 900 | 600 |
| 3200 | 2900 | 1000 | Cc1ccc(Nc2cc(C)cn3c(=O)cc(N4CCOCC4)nc23)cc1 | 1000 | 1600 |
| 2100 | 3900 | 500 | Cc1cc(Nc2c(C)cccc2C)c2nc(N3CCOCC3)cc(=O)n2c1 | 1500 | 1300 |
| 150 | 500 | 230 | Cc1cc(NCc2ccccc2)c2nc(N3CCOCC3)cc(=O)n2c1 | 100 | 500 |
| 130 | 400 | 200 | Cc1cccc(CNc2cc(C)cn3c(=O)cc(N4CCOCC4)nc23)c1 | 400 | 1300 |

| IC50 [1] [nM] | IC50 [4] [nM] | IC50 [5] [nM] | SMILES | IC50 [2] [nM] | IC50 [3] [nM] |
| --- | --- | --- | --- | --- | --- |
| 1800 | 900 | 640 | Cc1ccc(CNc2cc(C)cn3c(=O)cc(N4CCOCC4)nc23)cc1 | 400 | > 20000 |
| 420 | 2000 | 800 | Cc1cc(NCc2ccccn2)c2nc(N3CCOCC3)cc(=O)n2c1 | 2400 | 7000 |
| 590 | > 10000 | 450 | Cc1cc(NCc2cccnc2)c2nc(N3CCOCC3)cc(=O)n2c1 | 8200 | 7900 |
| 4200 | 4900 | 710 | Cc1cc(NCc2ccncc2)c2nc(N3CCOCC3)cc(=O)n2c1 | 14000 | 14000 |
| 210 | 2200 | 270 | Cc1cc(N[C@@H](C)c2ccccc2)c2nc(N3CCOCC3)cc(=O)n2c1 | 700 | 600 |
| 2300 | 2700 | 800 | Cc1cc(N[C@H](C)c2ccccc2)c2nc(N3CCOCC3)cc(=O)n2c1 | 700 | 800 |
| 3600 | 490 | 150 | O=C(Nc1ccccc1)c1cccn2c(=O)cc(N3CCOCC3)nc12 | 2000 | 7000 |
| 1500 | 1800 | 530 | Cc1ccccc1NC(=O)c1cccn2c(=O)cc(N3CCOCC3)nc12 | > 20000 | 11000 |
| 3900 | 850 | 300 | Cc1cccc(NC(=O)c2cccn3c(=O)cc(N4CCOCC4)nc23)c1 | 8000 | 2800 |
| > 10000 | 1200 | 140 | Cc1ccc(NC(=O)c2cccn3c(=O)cc(N4CCOCC4)nc23)cc1 | > 20000 | > 20000 |
| > 10000 | 4800 | > 10000 | O=C(NCc1ccccn1)c1cccn2c(=O)cc(N3CCOCC3)nc12 | 20000 | > 20000 |
| > 10000 | 6500 | > 10000 | O=C(NCc1cccnc1)c1cccn2c(=O)cc(N3CCOCC3)nc12 | 18000 | > 20000 |
| > 10000 | 6400 | > 10000 | O=C(NCc1ccncc1)c1cccn2c(=O)cc(N3CCOCC3)nc12 | 12000 | > 20000 |
| 1800 | 510 | 220 | O=C(Nc1cccn2c(=O)cc(N3CCOCC3)nc12)c1ccccc1 | 10000 | 2500 |
| 2400 | 810 | 270 | Cc1ccccc1C(=O)Nc1cccn2c(=O)cc(N3CCOCC3)nc12 | 5500 | 800 |
| 1800 | 570 | 470 | Cc1cccc(C(=O)Nc2cccn3c(=O)cc(N4CCOCC4)nc23)c1 | 6000 | 800 |
| 1900 | 1360 | 30 | Cc1ccc(C(=O)Nc2cccn3c(=O)cc(N4CCOCC4)nc23)cc1 | 900 | 800 |
| > 10000 | > 10000 | 1700 | O=c1cc(N2CCOCC2)nc2c(NS(=O)(=O)c3ccccc3)cccn12 | 6000 | 500 |
| 630 | 600 | 480 | O=C(Nc1ccccc1)Nc1cccn2c(=O)cc(N3CCOCC3)nc12 | 7200 | 2900 |
| 9100 | 9000 | 1800 | O=C(Nc1cccn2c(=O)cc(N3CCOCC3)nc12)Oc1ccccc1 | 7000 | 2500 |
| – | 1000 | 140 | Cc1cc(C(C)Nc2ccccc2)c2nc(N3CCOCC3)cc(=O)n2c1 (racemic) | 2800 | 1200 |
| 20 | 1500 | 220 | Cc1cc(C(C)N(C)c2ccccc2)c2nc(N3CCOCC3)cc(=O)n2c1 (racemic) | – | – |
